Measured values taken from ChEMBL document CHEMBL5506059, “Cyanomethylquinolones as a New Class of Potential Multitargeting Broad-Spectrum Antibacterial Agents” (J Med Chem, 2024).
Values after ≈ are worked out from the molar mass of the structure shown. Active and inactive are the calls of the source. The calls are words filed in the database; no cut-off is given here.

What was measured:
[1] = tested on: Staphylococcus aureus; experiment: Antibacterial activity against methicillin resistant Staphylococcus aureus clinical isolate assessed as inhibition of bacterial growth incubated for 24 hrs; type: functional
[2] = tested on: Staphylococcus aureus; experiment: Antibacterial activity against Staphylococcus aureus clinical isolate assessed as inhibition of bacterial growth incubated for 24 hrs; type: functional
[3] = tested on: Staphylococcus aureus; experiment: Antibacterial activity against Staphylococcus aureus ATCC 25923 assessed as inhibition of bacterial growth incubated for 24 hrs; type: functional
[4] = tested on: Staphylococcus aureus; experiment: Antibacterial activity against Staphylococcus aureus ATCC 29213 assessed as inhibition of bacterial growth incubated for 24 hrs; type: functional
[5] = tested on: Enterococcus faecalis; experiment: Antibacterial activity against Enterococcus faecalis clinical isolate assessed as inhibition of bacterial growth incubated for 24 hrs; type: functional
[6] = tested on: Klebsiella pneumoniae; experiment: Antibacterial activity against Klebsiella pneumoniae clinical isolate assessed as inhibition of bacterial growth incubated for 24 hrs; type: functional
[7] = tested on: Escherichia coli; experiment: Antibacterial activity against Escherichia coli clinical isolate assessed as inhibition of bacterial growth incubated for 24 hrs; type: functional
[8] = tested on: Escherichia coli; experiment: Antibacterial activity against Escherichia coli ATCC 25922 assessed as inhibition of bacterial growth incubated for 24 hrs; type: functional
[9] = tested on: Pseudomonas aeruginosa; experiment: Antibacterial activity against Pseudomonas aeruginosa clinical isolate assessed as inhibition of bacterial growth incubated for 24 hrs; type: functional
[10] = tested on: Pseudomonas aeruginosa; experiment: Antibacterial activity against Pseudomonas aeruginosa ATCC 27853 assessed as inhibition of bacterial growth incubated for 24 hrs; type: functional
[11] = tested on: Acinetobacter baumannii; experiment: Antibacterial activity against Acinetobacter baumannii clinical isolate assessed as inhibition of bacterial growth incubated for 24 hrs; type: functional
[12] = tested on: Escherichia coli; experiment: Potency index, ratio of norfloxacin MIC to test compound MIC for antibacterial activity against Escherichia coli ATCC 25922 assessed as inhibition of bacterial growth incubated for 24 hrs; type: functional
[13] = tested on: Escherichia coli; experiment: Potency index, ratio of ciprofloxacin MIC to test compound MIC for antibacterial activity against Escherichia coli ATCC 25922 assessed as inhibition of bacterial growth incubated for 24 hrs; type: functional
[14] = tested on: Streptococcus pneumoniae; experiment: Antibacterial activity against Streptococcus pneumoniae ATCC 6305 assessed as inhibition of bacterial growth incubated for 24 hrs; type: functional
[15] = tested on: Streptococcus pyogenes; experiment: Antibacterial activity against Streptococcus pyogenes ATCC 19615 assessed as inhibition of bacterial growth incubated for 24 hrs; type: functional
[16] = tested on: Staphylococcus epidermidis; experiment: Antibacterial activity against Staphylococcus epidermidis ATCC 12228 assessed as inhibition of bacterial growth incubated for 24 hrs; type: functional
[17] = tested on: Staphylococcus aureus; experiment: Antibacterial activity against methicillin-resistant Staphylococcus aureus ATCC 43300 assessed as inhibition of bacterial growth incubated for 24 hrs; type: functional
[18] = tested on: Staphylococcus aureus; experiment: Antibacterial activity against Staphylococcus aureus ATCC 12600 assessed as inhibition of bacterial growth incubated for 24 hrs; type: functional
[19] = tested on: Staphylococcus aureus; experiment: Antibacterial activity against Staphylococcus aureus ATCC 6538 assessed as inhibition of bacterial growth incubated for 24 hrs; type: functional
[20] = tested on: Staphylococcus aureus; experiment: Antibacterial activity against Staphylococcus aureus CMCC(B)26003 assessed as inhibition of bacterial growth incubated for 24 hrs; type: functional
[21] = tested on: Staphylococcus aureus; experiment: Antibacterial activity against Staphylococcus aureus CMCC(B)26001 assessed as inhibition of bacterial growth incubated for 24 hrs; type: functional
[22] = tested on: Enterococcus faecium; experiment: Antibacterial activity against Enterococcus faecium ATCC 19434 assessed as inhibition of bacterial growth incubated for 24 hrs; type: functional
[23] = tested on: Enterococcus faecalis; experiment: Antibacterial activity against vancomycin-resistant Enterococcus faecalis clinical isolate p1-2007226001 assessed as inhibition of bacterial growth incubated for 24 hrs; type: functional
[24] = tested on: Enterococcus faecalis; experiment: Antibacterial activity against vancomycin-resistant Enterococcus faecalis clinical isolate p1-2007225053 assessed as inhibition of bacterial growth incubated for 24 hrs; type: functional
[25] = tested on: Staphylococcus aureus; experiment: Antibacterial activity against methicillin resistant Staphylococcus aureus clinical isolate assessed as inhibition of bacterial growth at 1 times MIC incubated under dark condition and measured upto 5 hrs relative to control; type: functional
[26] = tested on: Erythrocyte; experiment: Hemolytic activity in human Red blood cells assessed as concentration required for 5% hemolysis measured after 1.5 hrs by absorbance based assay; type: toxicity, cell-based
[27] = Hemolytic activity in human Red blood cells at 256 ug/ml measured after 1.5 hrs by absorbance based assay relative to control; type: toxicity, cell-based, Erythrocyte; settings: red blood cells (erythrocytes), at 256 µg/mL, read-out: Activity
[28] = tested on: Staphylococcus aureus; experiment: Resistance development in methicillin resistant Staphylococcus aureus assessed as increase in MIC measured after 20 days; type: functional, organism-based; settings: time 20.0 day
[29] = tested on: Pseudomonas aeruginosa; experiment: Resistance development in Pseudomonas aeruginosa assessed as increase in MIC measured after 20 days; type: functional, organism-based; settings: time 20.0 day
[30] = tested on: Staphylococcus aureus; experiment: Antibiofilm activity in methicillin resistant Staphylococcus aureus assessed as biofilm eradication measured after 24 hrs by crystal violet staining based analysis; type: functional, organism-based; settings: dose 1-2 µg/ml
[31] = tested on: Pseudomonas aeruginosa; experiment: Antibiofilm activity in Pseudomonas aeruginosa assessed as biofilm eradication measured after 24 hrs by crystal violet staining based analysis; type: functional, organism-based; settings: dose 1-2 µg/ml
[32] = tested on: Pseudomonas aeruginosa; experiment: Induction of intracellular ROS generation in Pseudomonas aeruginosa assessed as increase in fluorescence intensity at 2 ug/ml incubated for 6 hrs by DCFH-DA dye based fluorescence analysis; type: functional, organism-based; settings: dose 2.0 µg/ml
[33] = tested on: Pseudomonas aeruginosa; experiment: Induction of intracellular ROS generation in Pseudomonas aeruginosa assessed as increase in fluorescence intensity at 2 ug/ml incubated for 6 hrs in presence of N-acetyl-L-cysteine by DCFH-DA dye based fluorescence analysis; type: functional, organism-based; settings: dose 2.0 µg/ml
[34] = tested on: Staphylococcus aureus; experiment: Antibacterial activity against methicillin resistant Staphylococcus aureus assessed as reduction in metabolic activity by measuring reduction in fluorescence intensity at 0.5 to 2 times MIC incubated for 6 hrs by alamar blue assay; type: functional, organism-based
[35] = tested on: Pseudomonas aeruginosa; experiment: Antibacterial activity against Pseudomonas aeruginosa assessed as reduction in metabolic activity by measuring reduction in fluorescence intensity at 0.5 to 2 times MIC incubated for 6 hrs by alamar blue assay; type: functional, organism-based
[36] = tested on: Calf thymus DNA; experiment: Binding affinity to calf thymus DNA assessed as DNA-compound complex formation by measuring increase in absorption of DNA at 260 nm at 0 to 3.3 x 10^-8mol/L by UV absorption spectra based analysis; type: nucleic-acid assay; settings: Bos taurus; dose 0-3.3 10^-8mol/L
[37] = tested on: Calf thymus DNA; experiment: Binding affinity to calf thymus DNA assessed as disruption of DNA confirmation by measuring blue shift at 0 to 3.3x10^-8mol/L by UV absorption spectra based analysis; type: nucleic-acid assay; settings: Bos taurus; dose 0-3.3 10^-8mol/L
[38] = tested on: Calf thymus DNA; experiment: Binding affinity to calf thymus DNA assessed as DNA-compound complex formation by measuring hyperchromism at 0 to 3.3 x 10^-8mol/L by UV absorption spectra based analysis; type: nucleic-acid assay; settings: Bos taurus; dose 0-3.3 10^-8mol/L
[39] = tested on: Calf thymus DNA; experiment: Competitive binding affinity to calf thymus DNA assessed as displacement of neutral red from DNA-neutral red complex by measuring reduction in absorbance at 540 nm at 0 to 2.9x10^-8 mol/L by UV absorption spectroscopy; type: nucleic-acid assay; settings: Bos taurus; dose 0-2.9 10^-8mol/L

Q: Which results are given for `C[C@H]1COc2c(CC(=O)O)c(F)cc3c(=O)c(C(=O)O)cn1c23`?
A: MIC [1]: 1 µg/mL (≈ 3.11 µM); MIC [2]: 16 µg/mL (≈ 49.8 µM); MIC [3]: 32 µg/mL (≈ 99.6 µM); MIC [4]: 1 µg/mL (≈ 3.11 µM); MIC [5]: 1 µg/mL (≈ 3.11 µM); MIC [6]: 8 µg/mL (≈ 24.9 µM); MIC [7]: 0.5 µg/mL (≈ 1.56 µM); MIC [8]: 0.25 µg/mL (≈ 0.778 µM); MIC [9]: 0.5 µg/mL (≈ 1.56 µM); MIC [10]: 0.5 µg/mL (≈ 1.56 µM); MIC [11]: 1 µg/mL (≈ 3.11 µM); Ratio [12]: 16; Ratio [13]: 2

Q: For `C#CCn1cc(C(=O)O)c(=O)c2cc(F)c(CC#N)cc21`, which MIC [1] is on record?
A: 0.5 µg/mL (≈ 1.76 µM)

Q: What about the MIC [2] of the same compound?
A: 256 µg/mL (≈ 901 µM)

Q: And the MIC [3]?
A: 0.25 µg/mL (≈ 0.88 µM)

Q: And the MIC [4]?
A: 1 µg/mL (≈ 3.52 µM)

Q: And the MIC [5]?
A: 1 µg/mL (≈ 3.52 µM)

Q: What about the MIC [6] of the same compound?
A: 2 µg/mL (≈ 7.04 µM)

Q: And the MIC [7]?
A: 1 µg/mL (≈ 3.52 µM)

Q: And the MIC [8]?
A: 0.5 µg/mL (≈ 1.76 µM)

Q: And the MIC [9]?
A: 0.25 µg/mL (≈ 0.88 µM)

Q: What about the MIC [10] of the same compound?
A: 1 µg/mL (≈ 3.52 µM)

Q: And the MIC [11]?
A: 0.5 µg/mL (≈ 1.76 µM)

Q: And the MIC [14]?
A: 32 µg/mL (≈ 113 µM)

Q: And the MIC [15]?
A: 1 µg/mL (≈ 3.52 µM)

Q: What about the MIC [16] of the same compound?
A: 4 µg/mL (≈ 14.1 µM)

Q: What about the MIC [17] of the same compound?
A: 4 µg/mL (≈ 14.1 µM)

Q: What about the MIC [18] of the same compound?
A: 16 µg/mL (≈ 56.3 µM)

Q: What about the MIC [19] of the same compound?
A: 2 µg/mL (≈ 7.04 µM)

Q: And the MIC [20]?
A: 2 µg/mL (≈ 7.04 µM)

Q: What about the MIC [21] of the same compound?
A: 4 µg/mL (≈ 14.1 µM)

Q: What about the MIC [22] of the same compound?
A: 4 µg/mL (≈ 14.1 µM)

Q: And the MIC [23]?
A: 16 µg/mL (≈ 56.3 µM)

Q: And the MIC [24]?
A: 8 µg/mL (≈ 28.1 µM)

Q: What about the “inhibition (INH)” value [25] of the same compound?
A: ~100%

Q: What about the HC5 [26] of the same compound?
A: > 10000 µg/mL

Q: And the hemolysis at 1.5 h, 256 ug/ml [27]?
A: < 1%

Q: And the Activity [28]?
A: inactive

Q: What about the Activity [29] of the same compound?
A: inactive

Q: What about the Activity [30] of the same compound?
A: Dose-Dependent Effect

Q: What about the Activity [31] of the same compound?
A: Dose-Dependent Effect

Q: And the Activity [32]?
A: Active

Q: What about the Activity [33] of the same compound?
A: inactive

Q: What about the Activity [34] of the same compound?
A: Active

Q: What about the Activity [35] of the same compound?
A: Active

Q: And the Activity [36]?
A: Active

Q: What about the Activity [37] of the same compound?
A: Active

Q: What about the Activity [38] of the same compound?
A: Active

Q: And the Activity [39]?
A: Active
